According to patent US9796757B2, “Compositions and method for treating thrombosis” (The Board of Trustees of the University of Illinois, priority 2013, dated 2017):
No end group written: not given here. *: point of attachment. Myristoyl = CCCCCCCCCCCCCC(=O)*

Experiments:
lung ECs = test: ex vivo isolated buffer-perfused mouse lung vWF secretion (ELISA of perfusate)
Experimental: Anesthetized GNA12^−/−, GNA12^−/−/EC GNA13^−/−, GNAq^−/−, and GNAq^−/−/EC GNA11^−/− mice were instrumented with a tracheal tube, cannulated via pulmonary artery, and perfused with warmed Krebs buffer at a rate of 1 ml/min for 5 minutes to remove residual blood constituents followed by treatment for 20 minutes with 2 ml recirculating Krebs buffer to assess constitutive vWF secretion. […] Following lung perfusion, lungs were minced and snap-frozen in liquid nitrogen for subsequent determination of whole lung extract vWF levels.
(§1) Mouse samples were collected and vWF level was measured by sandwich ELISA (Lu, et al. (2011) supra). One unit of vWF was defined as the amount present in 1 ml of mouse pooled normal plasma.
To address the role of G protein α subunits in constitutive (basal, spontaneous) vs. PAR-1-mediated vWF secretion from endothelial cells, vWF was measured in the ex vivo isolated buffer-perfused mouse lung (IPML). Lung preparations were used to exclude platelets as a source of vWF and also hepatic stellate cells as contributors of proteases that cleave ultra large vWF strings (Lenting, et al. (2012) supra). Ventilated WT, Gα12^−/−, and EC-Gαq^−/−; Gα11^−/− mouse lungs were cannulated and perfused with warmed recirculating RPMI media via pulmonary artery and left atrial catheters in situ. To assess basal vWF secretion, precleared blood-free lungs were perfused for 15 minutes with […] of 37° C. recirculating RPMI media (approximately the same volume as the normal mouse blood volume). Samples of the recirculating buffer were collected at 5 minute intervals over a period of 30 minutes and vWF (mU/ml perfusate) was measured by ELISA.
To assess the mechanism of thrombin-induced vWF release from ECs via PAR-1 activation, the PAR-1-specific synthetic peptide Thr-Phe-Leu-Leu-Arg (SEQ ID NO:3) was used to stimulate lung ECs. […] The initial slope of the vWF secretion curve was used to estimate the rate of vWF release following addition of Thr-Phe-Leu-Leu-Arg (SEQ ID NO:3), which was approximately 25 mU/mL/min in WT mouse lungs. […] Under these same conditions, basal vWF secretion in the pulmonary circulation of EC-Gαq^−/−; Gα11^−/− lungs was not different from that observed in WT mice, although Thr-Phe-Leu-Leu-Arg (SEQ ID NO:3)-induced vWF release was reduced by approximately 40%. […] The presence of EC WPB vWF in en face descending aorta and paraffin-embedded lung sections was verified by immunostaining and confocal microscopy. WT, Gα12^−/−, and Gα11^−/− tissues stained positive for vWF consistent with there being equivalent vWF synthesis and storage in WPBs in WT, Gα12^−/−, and Gα11^−/− mice.

HUVEC = test: vWF immunostaining / WPB quantification by confocal microscopy in HUVEC; assay type: cell-based, human
Experimental: Endothelial cells cultured on gelatin-coated glass bottom dishes were fixed with 4% paraformaldehyde, permeabilized with 0.1% TRITON X-100, blocked with 5% goat serum for 1 hour, and subsequently incubated with rabbit polyclonal antibody directed against vWF (0.5 μg/ml) or contral IgG overnight at 4° C. Coverslips were washed 3× with phosphate-buffered saline and incubated for 30 minutes at room temperature in the dark with ALEXAFLUOR 555 goat anti-mouse and ALEXAFLUOR 488-labeled goat anti-rabbit secondary antibody. Coverslips were washed with phosphate-buffered saline and embedded in mounting media (VECTASHIELD). Confocal microscopy was performed using a ZEISS LSM 510 Meta microscope (Carl Zeiss MicroImaging, Inc.) equipped with 488 nm and 543 nm excitation lasers and pinhole set to achieve 1 Airy unit.
Weibel-Palade Bodies (WPBs) were identified based on vWF immunofluorescence staining, size (approximately 3 μm long and 0.3 μm wide), and shape (elongated organelles). […] The number of WPBs per cell was counted (n=10-30) and the average fluorescence intensity per WPB/cell determined.
To distinguish whether the inhibitory effect of Gα12 depletion on vWF secretion is due to inhibition of vWF secretion as opposed to impaired vWF production or storage, vWF immunostaining and confocal microscopy of control siRNA and Gα12 siRNA-treated HUVECs was performed in presence or absence of thrombin stimulation.
To elucidate the role of Gα12 in WPBs exocytosis, HUVEC were transfected with constitutively-active GFP-tagged Gα12^Q229L mutant, GFP-tagged Gα12^WT, or GFP alone, and then confocal images of vWF immunostaining were quantified.
The role of Gα12/αSNAP interactions in regulation of vWF secretion was analyzed using a two-step experimental approach. First, a library of Gα12-substitution mutants (Meigs, et al. (2005) J. Biol. Chem. 280(18):18049-18055) was used, in which the primary sequence of Gα12 was replaced with the Asn-Ala-Ala-Ile-Arg-Ser (SEQ ID NO:5; NAAIRS cassette) to assess domain-specific in vitro binding of Myc-tagged Gα12^Q229L with or without ‘NAAIRS’ substitution of N-terminal amino acids 4-9 (ΔN4-9) or 10-15 (ΔN10-15) to GST-αSNAP. […] Secondly, to assess the role of Gα12 interaction with α-SNAP in vWF secretion, a GFP-tagged α-SNAP Binding Domain (aa 10-15) minigene (GFP-SBD) was constructed based on the identified Gα12•GST-αSNAP interaction.

plasma vWF = plasma vWF after CLP or SHAM surgery in mice; assay type: in vivo; conditions: 24 hours after SHAM or CLP surgery, i.v. 100 μl of 100 μM (~5 μM) at time of surgery, vs Myr-Scrambled peptide, n=3/group
Experimental: Mice were anaesthetized by ketamine/xylazine as above and ventilated according to conventional methods. […] Plasma was prepared from citrated blood samples via centrifugation at 3,000×g for 15 minutes at room temperature and stored at −80° C. until vWF measurement by ELISA. The anesthetized mouse was then euthanized for lung tissue collection as described below.
as §1
It was determined whether Gα12 interaction with αSNAP plays an important role in both basal and evoked VWF secretion from endothelial cell WPBs in vitro and in vivo. Myr-SBD peptide (1 μM; 1 hour pre-incubation) blocked both basal VWF secretion and that evoked by thrombin stimulation of HPAEC (FIG. 2). The effect of Gα12 and Myr-SBD on vWF secretion was assessed as was mortality associated with CLP/sepsis in rodent models. […] Importantly, reduced plasma vWF levels (FIG. 3B) were observed 24 hours after SHAM or CLP surgery in mice given 100 μl of 100 μM Myr-SBD (˜5 μM) as compared to mice treated with Myr-Scrambled peptide.

HPAEC = test: vWF secretion assay and ELISA in HPAEC; assay type: cell-based, human; conditions: peptide 1 μM, 1 hour pre-incubation, ELISA (FIG. 2), listed as Myr-SBD peptide
Experimental: vWF secretion assay was as previously described (Lui-Roberts, et al. (2005) J. Cell Biol. 170:627-636). In brief, 48 hours after transfection, endothelial cells were serum-deprived for 4 hours, washed, and incubated with fresh serum-free medium in presence or absence of 25 nM thrombin, A23187 (a calcium ionophore), or culture medium alone (vehicle control). Cell culture media was collected at various time points after agonist stimulation and centrifuged for 10 minutes at 13,000×g to remove cell debris. Supernatants were assayed for vWF content by ELISA. Cells were lysed to determine total vWF secreted per 10^6 cells. The concentration of vWF was expressed as mIU/ml/10^6 cells by relating the absorbance at 450 nm to a vWF standard curve. […] To prevent potential differences in releasable vWF, the same batch of HUVEC was used for all experiments, and control and siRNA treated cells were assessed at equivalent cell densities.
The role of G protein signaling in basal vs. PAR1-stimulated vWF secretion from confluent, low passage, and serum-deprived HUVECs and HPAECs was subsequently determined. […]
It was determined whether Gα12 interaction with αSNAP plays an important role in both basal and evoked VWF secretion from endothelial cell WPBs in vitro and in vivo. […] The effect of Gα12 and Myr-SBD on vWF secretion was assessed as was mortality associated with CLP/sepsis in rodent models. […]

[1] = tail-snip blood loss (primary hemostasis); assay type: in vivo; conditions: EC-Gα13−/−; Gα12−/− mice; i.v. 2 μg/g BW
Experimental: Mice were anaesthetized using 100 mg/kg ketamine and 5 mg/kg xylazine. Once unresponsive to tail pinch, 3-5 mm of the end of the tail was removed with a scalpel, the tail was immersed in 0.9% saline solution (37° C.), and time required for bleeding to stop was recorded (n=10 male mice/group, age 8-12 weeks) according to established methods (Lu, et al. (2011) Cell Res. 21:530-545). If no cessation of bleeding occurred after 30 minutes, the tail was cauterized with a cautery pencil and 30 minutes was recorded as the bleeding time. Blood loss during the bleeding time experiments was expressed as the accumulated amount of hemoglobin (Hb) bled into the container with phosphate-buffer saline in which tails were immersed. Hb (mg Hb/mL saline) was analyzed over the period of the experiment, using Hemocue HB201+ (Hemocue; Cypress, Calif.). Mice were allowed to recover in a clean cage. […]
Using megakaryocyte-restricted-Gα12/13 double knockout mice, it has been observed that Gα13-dependent signaling in platelets is important for hemostasis and thrombosis (Moers, et al. (2003) Nat. Med. 9(11):1418-1422). However, the molecular mechanisms and functional significance of endothelial cell Gα12 and Gα13 in primary hemostasis were not assessed. […] Hb accumulation from the cut tail immersed in saline solution was measured every 5 minutes for 15 minutes. […]

With CCN1C(=O)C=CC1=O [NEM, N-Ethylmaleimide] the vWF secretion (lung ECs; 1 mM added to recirculating lung perfusion system for 1 minute) was “abolished”.
With “GFP-SBD: GFP-tagged α-SNAP Binding Domain (aa 10-15) minigene expressed in HUVEC (RCLLPA; not fully specified; also: GFP-tagged minigene (fusion))” the “thrombin-induced WPB exocytosis” value (HUVEC; GFP-SBD minigene expressed in HUVEC) was “inhibited” and the “intracellular vWF staining following thrombin stimulation” value (HUVEC; GFP-SBD-expressing HUVECs, control GFP cells significantly reduced (FIG. 1)) was “remained unchanged”.
With “Myr-Arg-Cys-Leu-Leu-Pro-Ala (Myristoyl-RCLLPA) [Myr-SBD]” the “plasma vWF levels” value (plasma vWF) was “reduced”, the “basal VWF secretion” value (HPAEC) was “blocks” and the “thrombin-evoked VWF secretion” value (HPAEC; thrombin stimulation) was “blocks”.
With “Thr-Phe-Leu-Leu-Arg (TFLLR) [Thr-Phe-Leu-Leu-Arg (SEQ ID NO:3)]” the “reduction of peptide-induced vWF release vs WT” value (lung ECs; EC-Gαq−/−, Gα11−/− mouse lungs) was “approximately 40%”, the “rate of vWF secretion” value (lung ECs; Gα12−/− mouse lungs, 30 μM peptide in recirculating perfusate) was 3 mU/mL/min and the “time to peak vWF level in perfusate” value (lung ECs; WT mice, 30 μM peptide, remained constant for up to 1 hour) was 10 to 15 min. For the same compound, the “rate of vWF release (initial slope of vWF secretion curve)” value (lung ECs; WT mouse lungs, 30 μM peptide in recirculating perfusate) was “approximately 25 mU/mL/min”.
With “purified human plasma-derived vWF: purified human plasma-derived von Willebrand factor” the “hemostasis (tail-snip blood loss)” value [1] was “corrected”.
For thrombin, the “GFP-positive control cells showing reduced vWF positive WPBs” value (HUVEC; HUVEC transfected with GFP alone, 25 nM thrombin for 15 minutes) was 80% and the “decrease in intracellular vWF staining” value (HUVEC; control siRNA HUVEC, thirty minutes after thrombin treatment) was > 80%.
